Patent US11110092B2, “Methods of treating hematologic cancers” (BIOCRYST PHARMACEUTICALS, INC, priority 2007, dated 2021)
Read-outs that look alike come from different tables or passages of the source. Peptide text beside a SMILES is read from it. * marks the point of attachment. Cbz = O=C(OCc1ccccc1)*; CH2F = FC*

Tests used:
BIM in CLL cells = test: BIM protein levels by immunoblotting; assay type: cell-based, human; conditions: forodesine treatment
ROS in CLL primary cells = test: Reactive oxygen species production (dihydroethidine staining, flow cytometry); assay type: cell-based, human; conditions: for effect of pre-incubation on ROS production induced by forodesine: ROS scavenger pre-incubation
Method: (§1) Cells were incubated for different time points with forodesine at doses ranging from 1 to 12 μM in the presence or absence of 10-20-30 μM of deoxyguanosine (dGuo). When indicated, cells were pre-incubated for 1 hour with the pan-caspase inhibitor z-VAD.fmk (benzyloxy-carbonyl-Val-Ala-Asp-fluoro-methylketone; Bachem, Bubendorf, Switzerland) at 80 the caspase-8 inhibitor z-IETD.fmk at 50 μM (Z-Ile-Glu(OMe)Thr-DL-Asp (OMe)-fluoromethylketone, Bachem), 2′-deoxycytidine (5-10-20 μM, Sigma), N-acetyl-L-cysteine (NAC, 25 mM), Tiron (5 mM, 4,5-Dihydroxy-1,3-Benzene-disulfonic acid, Sigma) or GSH (2 mM; Sigma). […] Loss of mitochondrial transmembrane potential (ΔΨm) were evaluated by staining cells with 20 nM of DiOC6 (3,3-diexyloxacarbocyanine iodide, Molecular Probes) and reactive oxygen species (ROS) production was determined by staining cells with 2 μM dihydroethidine (DHE; Molecular Probes) and flow cytometry analysis.

p53 in CLL cells = test: p53 protein stabilization by immunoblotting; assay type: cell-based, human; conditions: CLL cases with no 17p deletion
BID in CLL cells = test: BID processing by immunoblotting; assay type: cell-based, human; conditions: forodesine treatment
BAX and BAK in CLL cells = test: BAX and BAK activation by flow cytometry (conformational change); assay type: cell-based, human; conditions: incubation of CLL cells with forodesine
[1] = tested on: XIAP and survivin in CLL cells; test: XIAP and survivin levels by immunoblotting; assay type: cell-based, human; conditions: forodesine treatment
[2] = Gandhi et al. 2005; Korycka et al. 2007; cited from earlier work
[3] = tested on: mitochondrial transmembrane potential in CLL cells; test: Loss of mitochondrial transmembrane potential (DiOC6 staining, flow cytometry); assay type: cell-based, human; conditions: for effect of pre-incubation on Δψm loss induced by forodesine: ROS scavenger pre-incubation
Method: as §1

[4] = tested on: caspase-9, -8 and -3 in CLL cells; test: Caspase activation by immunoblotting; assay type: cell-based, human; conditions: as early as 10 hours of forodesine treatment
[5] = tested on: intracellular dGTP in CLL primary cells; test: Measurement of intracellular dGTP levels (DNA polymerase assay); assay type: cell-based, human; conditions: forodesine 2 μM and dGuo 10 μM; 26 CLL patients; 18 hours
Method: 15×10^6 of CLL primary cells were incubated with or without forodesine (2 μM) and dGuo (10 μM) or fludarabine (1 μg/ml) for 18 hours and the nucleotides were extracted with 60% methanol and intracellular dGTP levels were quantified by DNA polymerase assay as modified by Sherman and Fyfe (Sherman et al., Anal Biochem, 180(2), 222-226 (1989)). Data were expressed in fold induction of intracellular dGTP levels respect of control cells. In parallel, cell viability at 24 and 48 hours were also evaluated.

[6] = tested on: primary leukemic cells from patients with CLL; set-up: cell death: dose or concentration left out as unconfirmed
Method: The present in vitro study was carried out in primary leukemic lymphocytes from 43 patients diagnosed with CLL according to the World Health Organization classification. Informed consent was obtained from each patient.
Peripheral blood mononuclear cells (PBMCs) cells were isolated by Ficoll/Hypaque sedimentation (Seromed, Berlin, Germany). Cells were either used directly or cryopreserved in liquid nitrogen in the presence of 10% dimethyl sulfoxide and 90% heat-inactivated fetal bovine serum (FBS, Gibco Paisley, Scotland, UK).
Cells were incubated for different time points with forodesine at doses ranging from 1 to 12 μM in the presence or absence of 10-20-30 μM of deoxyguanosine (dGuo). When indicated, cells were pre-incubated for 1 hour with the pan-caspase inhibitor z-VAD.fmk (benzyloxy-carbonyl-Val-Ala-Asp-fluoro-methylketone; Bachem, Bubendorf, Switzerland) at 80 the caspase-8 inhibitor z-IETD.fmk at 50 μM (Z-Ile-Glu(OMe)Thr-DL-Asp (OMe)-fluoromethylketone, Bachem), 2′-deoxycytidine (5-10-20 μM, Sigma), N-acetyl-L-cysteine (NAC, 25 mM), Tiron (5 mM, 4,5-Dihydroxy-1,3-Benzene-disulfonic acid, Sigma) or GSH (2 mM; Sigma). […] Cell viability and apoptosis induction was analyzed by changes in cell complexity by means of FSC/SSC, quantification of phosphatidyl serine (PS) exposure by double staining with Annexin-V conjugated to fluorescein isothiocyanate (FITC) and propidium iodide (PI) (BenderMedsystems, Vienna, Austria). For the analysis of apoptosis in the CD3^+ and CD19^− populations, PBMCs were labeled simultaneously with anti-CD3-FITC (Immunotech, Marseille, France), anti-CD19-PE (Becton Dickinson) and Annexin-V-APC. Cell viability and cytotoxicity were plotted as percentage with respect to control cells. Loss of mitochondrial transmembrane potential (ΔΨm) were evaluated by staining cells with 20 nM of DiOC6 (3,3-diexyloxacarbocyanine iodide, Molecular Probes) and reactive oxygen species (ROS) production was determined by staining cells with 2 μM dihydroethidine (DHE; Molecular Probes) and flow cytometry analysis. […] In brief, cells were washed once in PBS and fixed in paraformaldehyde 4%, permeabilized with 0.1% saponin and 0.5% bovine serum albumin (BSA). […] After several washes in permeabilization buffer, cells were incubated with a secondary goat anti-mouse FITC (DAKO) or goat anti-rabbit FITC (Supertechs) antibody and washed again with permeabilization buffer. Ten thousand stained cells per sample were then analyzed by flow cytometry.

BCL-2 in CLL cells = test: BCL-2 protein levels by immunoblotting; assay type: cell-based, human; conditions: forodesine treatment
[7] = tested on: dCK phosphorylated at Ser-74 in CLL cells; test: Western blot of dCK phosphorylation at Ser-74; assay type: cell-based, human
MCL-1 in CLL cells = test: MCL-1 protein levels by immunoblotting; assay type: cell-based, human; conditions: forodesine treatment
[8] = tested on: FOXO1 and FOXO3a in CLL cells; test: FOXO1 and FOXO3a levels by immunoblotting; assay type: cell-based, human; conditions: CLL cells treated with forodesine
p73 in CLL cells = test: p73 mRNA (real time RT-PCR) and TAp73 protein levels; assay type: cell-based, human; conditions: all CLL cases analyzed
Method: Cells were lysed for 15 min in RIPA buffer supplemented with protease and phosphatase inhibitors (leupeptine 10 μg/ml, apoprotinine 10 μg/ml, 1 μM PMSF, 1 μM sodium ortovanadate, 1 μM NaF, 2 μM sodium pyrophosphate decahydrate (Sigma)). Total cellular proteins were separated by SDS-PAGE under reducing conditions and transferred to Immobilon-P (Millipore) membranes. […] Equal protein loading was confirmed with β-actin or α-tubulin expression and relative protein quantification was done with Image Gauge Fujifilm software (Fuji). […] The expression levels of p73 and Mcl-1 were determined in an ABI Prism 7900HT Sequence Detection System (Applied Biosystems, Foster City, Calif.) using pre-designed Assay-on-demand (Applied Biosystems). The relative expression of each gene was quantified by the comparative cycle threshold (Ct) method (ΔΔCt), using GUS as an endogenous control. mRNA expression levels were given as arbitrary quantitative PCR units, taking as a calibrator the control sample (untreated) of each case.

[9] = caspase-8 inhibitor pre-incubation

## Cl.O=c1[nH]cnc2c([C@@H]3N[C@H](CO)[C@@H](O)[C@H]3O)c[nH]c12 [Forodesine]
BIM in CLL cells
  BIM protein levels: induced an increase
ROS in CLL primary cells; CLL primary cells, evident after 10 hours
  ROS production: induced the production of ROS
p53 in CLL cells
  p53 protein: induce stabilization of p53 protein
BID in CLL cells
  BID protein: induced a decreased of BH3-only protein BID
BAX and BAK in CLL cells
  activation of BAX and BAK: induced the conformational change of BAX and BAK
[1]
  XIAP and survivin levels: decrease of the inhibitors of apoptosis XIAP and survivin
[2]
  toxicity profile: low toxicity profile
[3]; early times, evident after 10 hours
  mitochondrial transmembrane potential (Δψm): induced loss of mitochondrial transmembrane potential
[4]
  activation of caspase-9, -8 and -3 (processing of pro-inactive form): dose- and time-dependent activation
[5]
  increase in intracellular dGTP levels with respect to control basal levels: up to 96 times fold increase
[6]
  cytotoxic effect of agent alone: did not induce a cytotoxic effect
  share of cases with cytotoxic effect between 40-60%: 41.8%
[6]; 11 CLL patients with 17p deletions, Forodesine 2 μM+dGuo 20 μM, 48 hours
  response of p53 deleted CLL cases: high response
[6]; 12 of 32 CLL patient samples
  response in samples with no or low in vitro response to bendamustine 25 μM and/or fludarabine 1 μg/ml: high response
[6]; CLL cells with high levels of ZAP-70, 22 CLL patients
  mean cytoxicity: 57.9%±12
[6]; CLL cells with low levels of ZAP-70, 17 CLL patients
  mean cytoxicity with respect to control: 58.1%±11
[6]; Forodesine 2 μM and dGuo 10-20 μM
  response of CLL cells with low or no sensitivity to Bendamustine or Fludarabine: good response
[6]; forodesine 2-5-10 μM with dGuo 10-20 or 30 μM, 48 hours
  cell death (Annexin-V+ staining): induced cell death
[6]; forodesine-induced cytotoxicity
  response in CLL cells with 13q deletion, 11q deletion and 17p deletion: good response
[6]; n=10, 48 hours
  cell death, CLL fresh samples: 56.6%±6.4
[6]; n=32, 48 hours
  cell death, cryopreserved primary CLL samples: 58.3%±11
BCL-2 in CLL cells
  BCL-2 protein levels: not affected
[7]; western blot in CLL cells
  phosphorylated form (at Ser-74) of dCK: increase in the phosphorylated form
MCL-1 in CLL cells
  MCL-1 protein levels: considerably decreased
[8]
  FOXO1 and FOXO3a levels: induced an increase in both, FOXO1 and FOXO3a
p73 in CLL cells
  p73 mRNA and TAp73 protein levels: clear up-regulation

## CC(=O)N[C@@H](CS)C(=O)O [NAC, N-acetyl-L-cysteine]
ROS in CLL primary cells
  effect of pre-incubation on ROS production induced by forodesine: practically reverted ROS production
[3]
  effect of pre-incubation on Δψm loss induced by forodesine: reduced Δψm loss

## Rituximab
[6]; single agent or combined with forodesine, 24 hours
  cell death: low

## Nc1ccn([C@H]2C[C@H](O)[C@@H](CO)O2)c(=O)n1 [deoxycytidine, 2′-deoxycytidine]
[6]; deoxycytidine 5-10 μM
  effect of pre-incubation on forodesine-induced cell death: inhibited forodesine-induced cell death
[6]; deoxycytidine pre-incubation
  effect on cell death induced by bendamustine: not reverted
  effect on loss of cell viability induced by fludarabine: reverted the loss of cell viability

## CC[C@H](C)[C@H](NC(=O)OCc1ccccc1)C(=O)N[C@@H](CCC(=O)OC)C(=O)N[C@H](C(=O)N[C@@H](CC(=O)OC)C(=O)CF)[C@@H](C)O (racemic) [z-IETD.fmk, Z-Ile-Glu(OMe)Thr-DL-Asp (OMe)-fluoromethylketone]
[3]; [9]
  reversion of ΔΨm loss induced by forodesine: more pronounced
[6]; [9]
  effect on forodesine apoptosis induction (Annexin V staining): partially blocked

## Cl.Cn1c(CCCC(=O)O)nc2cc(N(CCCl)CCCl)ccc21 [Bendamustine]
[7]
  phosphorylated form (at Ser-74) of dCK: not exerted

## COC(=O)C[C@H](NC(=O)[C@H](C)NC(=O)[C@@H](NC(=O)OCc1ccccc1)C(C)C)C(=O)CF [z-VAD.fmk, benzyloxy-carbonyl-Val-Ala-Asp-fluoro-methylketone] (Cbz-Val-Ala-Asp(OMe)-CH2F)
[6]; broad range caspase inhibitor pre-incubation, forodesine 24 hours
  effect on phosphatidylserine exposure after forodesine treatment: partially reduced phospatidylserine exposure

## CCOC(=O)CNC(=O)[C@H](CS)NC(=O)CC[C@H](N)C(=O)O [GSH, glutathione-reduced ethyl ester]
ROS in CLL primary cells
  effect of pre-incubation on ROS production induced by forodesine: moderated
[3]
  effect of pre-incubation on Δψm loss induced by forodesine: reduced Δψm loss

## Nc1nc(F)nc2c1ncn2[C@@H]1O[C@H](CO)[C@@H](O)[C@@H]1O [Fludarabine]
[6]
  mean cytotoxicity: 25.1±13%
  mean cytotoxicity as single agents: 50.6±11%

## Nc1nc2c(ncn2[C@H]2C[C@H](O)[C@@H](CO)O2)c(=O)[nH]1 [dGuo, deoxyguanosine]
[6]
  cytotoxic effect of agent alone: did not induce a cytotoxic effect

## O=S(=O)(O)c1cc(O)c(O)c(S(=O)(=O)O)c1 [Tiron, 4,5-Dihydroxy-1,3-Benzene-disulfonic acid]
ROS in CLL primary cells
  effect of pre-incubation on ROS production induced by forodesine: practically reverted ROS production
[3]
  effect of pre-incubation on Δψm loss induced by forodesine: reduced Δψm loss
